# Reference: ChEMBL document CHEMBL1201862, “PubChem BioAssay data set” (2004)
# Calls of active or inactive are those of the source.
# Key:
# [1] = biological target: T1, Fructose-bisphosphate aldolase (Mycobacterium tuberculosis, UniProt P9WQA3); test: Fluorescence-based biochemical high throughput dose response assay for inhibitors of the fructose-bisphosphate aldolase (FBA) of M. tuberculosis.; assay type: functional
# T1 sequence (P9WQA3 whole entry): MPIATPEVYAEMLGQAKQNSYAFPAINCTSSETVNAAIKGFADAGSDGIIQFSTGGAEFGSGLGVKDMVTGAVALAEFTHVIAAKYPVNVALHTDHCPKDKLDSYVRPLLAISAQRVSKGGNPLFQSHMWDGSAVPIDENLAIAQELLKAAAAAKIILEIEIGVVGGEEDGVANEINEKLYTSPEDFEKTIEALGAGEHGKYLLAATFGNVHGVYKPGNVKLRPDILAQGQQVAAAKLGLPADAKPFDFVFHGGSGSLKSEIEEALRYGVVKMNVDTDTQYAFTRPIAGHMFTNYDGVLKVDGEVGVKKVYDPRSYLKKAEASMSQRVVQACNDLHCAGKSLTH
# [2] = viability loss of HPDE-C7K cells – cell-based, fluorescence, HTS, primary screen (AID 431); assay type: functional; settings: Homo sapiens
# [3] = NIH3T3 cell viability loss – ATP luminescence, mouse fibroblasts, counter-screen, dose response (AID 2010); assay type: functional, cell-based;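 note: cells exposed to compound for about 90 hours before reading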
# [4] = HPDE-C7 pancreatic duct cell viability loss – fluorescence, HTS (AID 430); assay type: functional, cell-based; settings: Homo sapiens
# [5] = Trypanosoma cruzi growth suppression in host cells – NIH3T3 host cells, beta-gal luminescence, confirmation (AID 2044); assay type: functional, cell-based;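 note: intracellular parasites grown in NIH/3T3 mouse fibroblasts as host cells; luminescent beta-galactosidase reporter signal from transgenic T. cruzi replicating inside host cells; inhibitors lower the luminescence signal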
# [6] = viability loss in HepG2 hepatoma cells – cell-based, ATP luminescence, cherry-pick, activator set 2, cytotoxicity control, dose response (AID 1053143); assay type: functional
# cells [7] = test: cells
# Major prion protein = Major prion protein (Homo sapiens, UniProt P04156); assay type: functional, cell-based
# [8] = HGIII-sPLA2 enzyme inhibition potency – biochemical, QFRET, IC50, dose response (AID 743457);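 note: green fluorescence rise as the enzyme cleaves BODIPY PC-A2 in liposomes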
# [9] = biological target: Protein-tyrosine kinase 2-beta (Homo sapiens, UniProt Q14289);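 note: potency of inhibitors of PYK2 kinase phosphorylation of poly-GT substrate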
# Estrogen receptor beta = Estrogen receptor beta (Homo sapiens, UniProt Q92731);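 note: recombinant ER-beta bound to coactivator SRC1 peptide in presence of estradiol agonist; inhibitors block coactivator peptide binding and lower the FRET signal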
# cells [10] = assay type: functional, cell-based
# [11] = biological target: T2, Nuclear receptor subfamily 0 group B member 1 (Homo sapiens, UniProt P51843); assay type: functional, cell-based;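 note: HEK293T cells transfected with SF-1 and DAX-1 plus StAR promoter luciferase reporter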
# T2 sequence (P51843 whole entry): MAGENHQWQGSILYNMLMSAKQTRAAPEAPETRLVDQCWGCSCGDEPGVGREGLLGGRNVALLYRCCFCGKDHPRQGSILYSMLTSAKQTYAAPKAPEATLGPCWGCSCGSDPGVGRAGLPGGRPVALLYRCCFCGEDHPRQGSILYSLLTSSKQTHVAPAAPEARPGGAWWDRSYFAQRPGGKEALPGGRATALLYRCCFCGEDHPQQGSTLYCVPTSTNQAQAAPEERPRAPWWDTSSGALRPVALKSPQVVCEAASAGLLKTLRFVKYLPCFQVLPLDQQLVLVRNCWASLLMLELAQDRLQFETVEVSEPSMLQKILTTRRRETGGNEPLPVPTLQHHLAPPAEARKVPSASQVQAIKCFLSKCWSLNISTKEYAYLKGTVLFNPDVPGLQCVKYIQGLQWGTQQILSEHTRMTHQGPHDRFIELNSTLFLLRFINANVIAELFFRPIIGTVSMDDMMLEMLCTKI
# cells [12] = assay type: functional, cell-based; remark: listed apart in the source
# cells [13] = assay type: functional, cell-based; remark: listed apart in the source
# [14] = biological target: T3, Trace amine-associated receptor 1 (Homo sapiens, UniProt Q96RJ0); test: Fluorescence-based cell-based high throughput dose response assay to identify agonists of the human trace amine associated receptor 1 (TAAR1).; assay type: functional
# T3 sequence (Q96RJ0 whole entry): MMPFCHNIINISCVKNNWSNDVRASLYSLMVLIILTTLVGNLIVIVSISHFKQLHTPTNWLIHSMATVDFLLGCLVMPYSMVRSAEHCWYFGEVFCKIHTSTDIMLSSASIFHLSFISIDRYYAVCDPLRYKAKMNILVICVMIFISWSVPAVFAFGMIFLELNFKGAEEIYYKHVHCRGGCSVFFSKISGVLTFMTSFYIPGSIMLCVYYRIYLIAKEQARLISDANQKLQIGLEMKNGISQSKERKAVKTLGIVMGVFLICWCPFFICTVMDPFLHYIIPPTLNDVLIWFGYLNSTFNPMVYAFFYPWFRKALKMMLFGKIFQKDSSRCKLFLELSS
# [15] = biological target: T3, Trace amine-associated receptor 1; test: Counterscreen for agonists of the human trace amine associated receptor 1 (hTAAR1): Fluorescence-based cell-based high throughput dose response assay to identify hTAAR1 agonist that also desensitize TAAR1 receptor response.; assay type: functional
# [16] = toxicity to human hepatoma HepG2 cells – cell-based, cherry-picked samples, cytotoxicity control, dose response (AID 1159577); assay type: functional
# [17] = P. falciparum Dd2 growth inhibitors, dose response, SYBR Green, cherry-picked samples (AID 1159567); assay type: functional, cell-based
structure (smiles),measurement,setting,value
CCOc1ccc2oc(C(=O)OCC(=O)NC3CCCC3)c(C)c2c1,IC50,[1],2.59 µM (active)
c1ccc(N2CCN(c3nc(NCc4ccco4)c4ccccc4n3)CC2)cc1,EC50,[2],10.8 µM (active)
same,EC50,[3],> 60 µM (not active)
same,EC50,[4],11 µM (active)
same,EC50,[5],2.3 µM (active)
C(=C\c1ccco1)/c1nc2ccccc2[nH]1,AC50,[6],26 µM (active)
N#Cc1nc(-c2cccs2)oc1N1CCN(Cc2ccccc2)CC1,IC50,[1],0.849 µM (active)
CC(=O)N1c2ccc(S(=O)(=O)N3CCCC(C(=O)Nc4cc(C)cc(C)c4)C3)cc2CC1C (configuration not stated),IC50,cells [7],> 138 µM (inactive)
same,IC50,Major prion protein,10.4 µM (inactive)
CC1=CC(C)(C)N=C(S)N1c1cccc2ccccc12,IC50,[8],> 122 µM (inactive)
CCc1ccc2nc(SCC(=O)N(CC)CC)c(C#N)cc2c1,IC50,[9],> 69.5 µM (not active)
O=S(=O)(O)c1nc2ccccc2n1Cc1ccccc1,IC50,Estrogen receptor beta,> 50 µM (not active)
COc1ccc(C(=O)COc2ccc(C)cc2NC(C)=O)cc1,AC50,[6],> 52 µM (inactive)
O=C(NCC1(N2CCCCC2)CCCCC1)c1cccc(S(=O)(=O)Nc2ccc(F)cc2)c1,IC50,cells [10],> 67.5 µM (inactive)
same,IC50,[11],> 67.5 µM (inactive)
COc1cccc(C(=O)N[C@H](C(=O)N2CCC[C@H]2C(=O)NCCc2ccccc2Cl)c2ccccc2)c1,IC50,cells [12],> 29.9 µM (inactive)
same,EC50,cells [13],> 29.9 µM (inactive)
same,EC50,[14],6.46 µM (active)
same,IC50,[15],7.36 µM (active)
N#C[C@@H]1[C@H](c2ccc(C#CCC3CCCC3)cc2)[C@H](CO)N1C(=O)c1ccccn1,AC50,[16],26 µM (active)
same,AC50,[17],3.37 µM (active)
CCCNC(=O)N1CC2(CCN(S(=O)(=O)c3ccc(OC)cc3)CC2)c2c(n(C)c3cc(OC)ccc23)[C@@H]1CO,AC50,[16],> 39 µM (inactive)
same,AC50,[17],3.11 µM (active)
c1ccc(CN(CC2=NCCN2)c2ccccc2)cc1 [ANTAZOLINE PHOSPHATE],IC50,cells [12],> 29.9 µM (inactive)
same,EC50,cells [13],> 29.9 µM (inactive)
same,EC50,[14],> 9.97 µM (active)
same,IC50,[15],> 29.9 µM (inactive)
